According to US20220000870A1, “TREATMENT OF CANCER” (MingSight Pharmaceuticals, Inc., priority 2016, published 2022):

Experiments:
Human PKC delta = Human PKC delta (Homo sapiens, UniProt Q05655); assay: Inhibition of PKC isoforms, in vitro assay; assay type: biochemical
Excerpt: The methods for these determinations have been described (Grant, et al. 2010, Eur J Pharmacol. 627:16-25).

OCI-Ly3 cells [1] = assay: IL-6 assay (ELISA of supernatant); assay type: cell-based; settings: OCI-Ly3 cells lacking activating CD79 mutations, 48 hours
Description: (§1) TMD8 cells were grown in MEM media supplemented with 10% fetal calf serum (FCS), non-essential vitamin mix, and penicillin-streptomycin antibiotics (pen-strep). HBL1 cells were grown in RPMI-1640 media supplemented with 10% FCS and pen-strep. OCI-Ly3 cells were grown in DMEM media with 15% FCS, non-essential vitamin mix, pen-strep, and 25 mM HEPES buffer. Cells were maintained in suspension culture, fed twice weekly, and split 1:3 approximately every two weeks (TMD8, OCI-Ly3) or weekly (HBL1).
(§2) Cells were harvested via centrifugation and resuspended twice to rinse the media of any IL-6. Cells were then plated in 96 well plates at 5×10^5 cells per well and exposed to increasing concentrations of Compound A, sotrastaurin, or media containing 0.1% DMSO (negative control). For each cell type, experiments were performed in the media used for growth and maintenance. Cells were allowed to grow for 48 hours after plating in the presence of inhibitors. Following compound exposure, cells were pelleted in the 96 well plate, supernatant was removed, and the concentration of IL-6 in the supernatant was determined using R&D Systems Haman IL-6 Quantikine® ELISA Kit (D6050) according to manufacturer's instructions.

TMD8 cells [2] = assay: IL-6 assay (ELISA of supernatant); assay type: cell-based; settings: for Inhibition of IL-6 production: TMD8 cells, CD79 mutant, 48 hours
Description: as §1, §2

HBL1 cells [3] = assay: IL-6 assay (ELISA of supernatant); assay type: cell-based; settings: CD79 mutant, 48 hours, data not shown
OCI-Ly3 cells [4] = assay: Cell proliferation and survival assay (MTT); assay type: cell-based; settings: 96 hours
Description: (§3) TMD8 cells were grown in MEM media supplemented with 10% fetal calf serum (FCS), non-essential vitamin mix, and penicillin-streptomycin antibiotics (pen-strep). HBL1 cells were grown in RPMI-1640 media supplemented with 10% FCS and pen-strep. OCI-Ly3 cells were grown in DMEM media with 15% FCS, non-essential vitamin mix, pen-strep, and 25 mM HEPES buffer. Cells were maintained in suspension culture, fed twice weekly, and split 1:3 approximately every two weeks (TMD8, OCI-Ly3) or weekly (HBL1). Cells were cultured and maintained as described above, with cells always fed on the day prior to assay. Proliferation and survival of cells was quantified using an MTT assay kit according to manufacturer's instructions (Cell Proliferation Kit 1, Roche Diagnostics, Cat. No. 11 465 007 001). Experiments were performed in the same media used by each cell type for growth and maintenance. Cells (5×10^4) were plated in 96 well plates and allowed to grow for 96 hours in the presence of inhibitors. After the exposure period was completed, MTT reagent was added for 3-4 hours. The MTT solubilization reagent was then added to stop the reaction and cells were incubated overnight at 37° C. The plate read the next day according to the kit instructions.

TMD8 cells [5] = assay: Cell proliferation and survival assay (MTT); assay type: cell-based; settings: for Inhibition of cell proliferation and survival: TMD8 cells, MTT, 96 hours
Description: as §3

HBL1 cells [6] = assay: Cell proliferation and survival assay (MTT); assay type: cell-based; settings: 96 hours, data not shown
TMD8 cells [7] = assay: Mouse xenograph model of DLBCL; assay type: in vivo, SCID mice
Description: To test the efficacy of Compound A in vivo, TMD8 cells were grown and subcutaneously injected into SCID mice. Large scale suspension culture of TMD8 cells was performed in T250 flasks, where cells were expanded weekly. Animals (n=24) were inoculated with 10×10^6 cells (10×10^6 cells in 100 μL volume of 50% Matrigel®) subcutaneously in the animal's right flank.

circulating lymphocytes = assay: Peripheral lymphocyte levels, multiple ascending dose study; assay type: in vivo, human; settings: healthy humans, 50, 100, 150, 200 mg BID, 14 days
Description: Normal, healthy human patients received various doses of Compound A for 14 days of dosing. The dose levels were as follows: cohort 1: 50 mg, BID; cohort 2: 100 mg, BID; cohort 3, 150 mg, BID; and cohort 4, 200 mg BID.

[8] = 120 mg/kg BID, SCID mice with TMD8 tumors

Chain of Human PKC delta (Q05655 whole entry, canonical isoform): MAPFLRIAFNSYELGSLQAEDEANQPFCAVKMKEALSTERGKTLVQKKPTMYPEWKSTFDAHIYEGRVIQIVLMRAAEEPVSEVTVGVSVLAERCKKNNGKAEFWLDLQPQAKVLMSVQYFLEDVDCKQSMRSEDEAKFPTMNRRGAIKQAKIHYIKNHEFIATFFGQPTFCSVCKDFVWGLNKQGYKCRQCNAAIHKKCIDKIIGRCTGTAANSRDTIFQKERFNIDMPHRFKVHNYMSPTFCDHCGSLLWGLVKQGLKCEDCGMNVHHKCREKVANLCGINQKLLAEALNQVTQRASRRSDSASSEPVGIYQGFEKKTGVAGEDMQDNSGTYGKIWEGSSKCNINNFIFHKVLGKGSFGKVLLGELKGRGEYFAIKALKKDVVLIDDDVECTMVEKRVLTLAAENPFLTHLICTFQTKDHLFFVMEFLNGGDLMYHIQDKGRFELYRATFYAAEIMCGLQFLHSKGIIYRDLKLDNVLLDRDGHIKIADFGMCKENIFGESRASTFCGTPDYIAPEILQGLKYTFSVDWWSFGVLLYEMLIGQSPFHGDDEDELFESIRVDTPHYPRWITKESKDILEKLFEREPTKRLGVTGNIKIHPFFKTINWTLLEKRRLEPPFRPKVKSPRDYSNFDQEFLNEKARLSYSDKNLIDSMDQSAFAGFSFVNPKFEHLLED

SMILES | Inhibition of PKC delta (in words) (Human PKC delta) | Inhibition of IL-6 production (OCI-Ly3 cells [1]) | Potency in IL-6 assay compared to sotrastaurin (TMD8 cells [2]) | Inhibition of IL-6 production (TMD8 cells [2]) | Inhibition of IL-6 production (HBL1 cells [3]) | Inhibition of cell proliferation and survival (OCI-Ly3 cells [4]) | Potency in cell proliferation assay compared to sotrastaurin (TMD8 cells [5]) | Inhibition of cell proliferation and survival (TMD8 cells [5]) | Inhibition of cell proliferation and survival (HBL1 cells [6]) | Mean weight of vehicle treated group greater than Compound A treated animals (TMD8 cells [7]; 120 mg/kg BID) [g] | Body weight change from day 24-28 (TMD8 cells [7]; [8]) | Body weight, first 10 days of treatment (TMD8 cells [7]; [8]) | Tumor growth (in words) (TMD8 cells [7]; study days 20 to 28, 120 mg/kg BID) | Number of circulating lymphocytes (circulating lymphocytes)
Cc1ncc(F)c(Nc2n[nH]c3c2CN(C(=O)N2C[C@@H](C)N(CC4CCOCC4)C[C@@H]2C)C3(C)C)n1 [Compound A, 5-{[(2S,5R)-2,5-dimethyl-4-(tetrahydro-2H-pyran-4-ylmethyl)piperazin-1-yl]carbonyl}-N-(5-fluoro-2-methylpyrimidin-4-yl)-6,6-dimethyl-1,4,5,6-tetrahydropyrrolo[3,4-c]pyrazol-3-amine] | does not inhibit PKC delta to any appreciable degree | not affected | slightly more potent | dose-dependent inhibition | dose-dependent inhibition | not affected by either compound except at the highest doses tested | modestly more potent | dose-dependent inhibition | dose-dependent inhibition | 1.8 | no increase in body weight | steady, slow increase | no appreciable amounts of tumor growth | dose dependent increase
CN1CCN(c2nc(C3=C(c4c[nH]c5ccccc45)C(=O)NC3=O)c3ccccc3n2)CC1 [sotrastaurin, reference compound] | – | not affected | – | dose dependent inhibition | – | not affected by either compound except at the highest doses tested | – | dose dependent inhibition | – | – | – | – | – | –
